{
  "source": "BindingDB's records for patent US20230416245",
  "about": "(Biointervene, 2023)",
  "target": "T1, Adenosine receptor A3 (Homo sapiens, UniProt P0DMS8)",
  "T1 sequence (P0DMS8 whole entry)": "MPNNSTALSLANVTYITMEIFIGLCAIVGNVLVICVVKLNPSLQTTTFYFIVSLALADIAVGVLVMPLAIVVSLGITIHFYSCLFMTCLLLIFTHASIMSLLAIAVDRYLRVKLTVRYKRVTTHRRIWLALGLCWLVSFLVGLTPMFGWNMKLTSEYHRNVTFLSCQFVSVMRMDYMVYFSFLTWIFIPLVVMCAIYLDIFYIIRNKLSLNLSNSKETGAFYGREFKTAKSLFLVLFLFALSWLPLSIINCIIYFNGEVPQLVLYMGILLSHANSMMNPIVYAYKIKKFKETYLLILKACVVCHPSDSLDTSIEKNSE",
  "assay": "Adenosine Receptor Binding Assay",
  "description": "Radioligand-binding assays were performed using the adenosine A3 receptor agonist [125I]-AB-MECA and the A1 receptor agonist [3H]CCPA. Binding assays were conducted in a total volume of 100 μL containing a 50 mM Tris, pH 7.4 buffer with or without 10 mM MgCl2, 20 μg membranes and either 0.15 nM [125I]-AB-MECA (for the A3 receptor) or 1 nM [3H]CCPA (for the A1 receptor). Assays were conducted at room temperature for 60 min (A1 receptor) or 120 min (A3 receptor) and terminated by the addition of 2 ml of ice-cold wash buffer (50 mM Tris, pH 7.4 with or without 10 mM MgCl2) and rapid filtration over 0.03% polyethylenimine-treated Whatman GF/C filters using a Brandel cell harvester (Semat International Ltd., St Albans, UK). Filters were then washed three times with 2 ml of ice-cold buffer. The filter-bound radioactivity were counted using a Compugamma counter (LKB Wallac, Turku, Finland). Competition experiments were performed to investigate the ability of reference compounds and embodiments of the invention to inhibit [125I]-AB-MECA binding. Non-specific binding were determined using the respective compound at its highest concentration",
  "data": [
    {"smiles": "CCNc1cc(Cl)nc2c1ncn2[C@H]1[C@H](O)[C@H](O)[C@]2(C(=O)NC)C[C@H]12", "note": "[US20230416245, Compound 59]", "values": [
      {"measurement": "Ki", "result": 0.23, "unit": "nM"}
    ]}
  ]
}
